From patent publication US4837228A, “Antiinflammatory and antimicrobial compounds and compositions” (The University of Mississippi, priority 1982, dated 1989)
≈ marks a conversion by molar mass, not a printed value. Entries after “also recorded” stand apart in the source; their conditions may differ. Where two headings read alike, the source gives them in different places.

Assays:
[1] = test system: Candida albicans; assay: agar well diffusion assay, C. albicans; type: cell-based; conditions: from edge of agar well
Method: (§1) Both qualitative and quantitative screens were performed. Qualitative screening was accomplished using the agar well diffusion assay technque while quantitative screening was accomplished by the two-fold (broth) serial dilution method to determine the minimum inhibitory concentration (MIC). Innoculation was accomplished with one loop-full of a 1:10 dilution of the 24-hour-old broth culture, (fungal cultures and M.smegmatis more often required 48 to 72 hours of incubation) of the test organisms in sterile water. Streptomycin sulfate was used as a positive control for antibacterial activity while amphitericin B was used as an antifungal positive control. Organisms utilized in the screens included gram-positive, gram-negative, and acid-fast bacteria as well as different types of fungi. […] An intermediate type activity is seen where R is hydrogen. However, where R is lengthened up to C15 a decrease in activity was noted. Total saturation of the two double bonds in the compounds having a methyl side chain lead, in most cases, to an increase in both antifungal and antibacterial activity.

[2] = test system: Mycobacterium smegmatis; assay: agar well diffusion assay, M. smegmatis; type: cell-based; conditions: from edge of agar well
Method: as §1

[3] = test system: Saccharomyces cerevisiae; assay: agar well diffusion assay, S. cerevisiae; type: cell-based; conditions: from edge of agar well
Method: as §1

[4] = test system: Aspergillus niger; assay: agar well diffusion assay, A. niger; type: cell-based; conditions: from edge of agar well
Method: as §1

[5] = test system: Staphylococcus aureus; assay: MIC, two-fold (broth) serial dilution, S. aureus; type: cell-based; conditions: Staphylococcus aureus, read-out: MIC
In short: (§2)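 Inoculation used a single loop of diluted (1:10) 24-hour broth culture suspended in sterile water, with incubation extended to 48–72 hours for fungi and M. smegmatis. Activity is read qualitatively by well diffusion on agar and quantitatively as MIC via twofold dilution series.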

[6] = test system: Bacillus subtilis; assay: MIC, two-fold (broth) serial dilution, B. subtilis; type: cell-based; conditions: Bacillus subtilis, read-out: MIC
In short: as §2

[7] = test system: carrageenan-induced rat paw edema; assay: carrageenan-induced rat paw edema test, oral gavage; type: in vivo; design: key to mean difference in volume (MDV): ml; post-injection minus pre-injection mean paw volume; conditions: for inhibition at 120 mg/kg / inhibition at 240 mg/kg / inhibition at 480 mg/kg: Rattus norvegicus, po, Table 5; for inhibition at 120 mg/kg: read-out: inhibition of carrageenan-induced rat paw edema
Method: In the Rat Paw Edema Test, the rats utilized were divided into test groups of six to eight animals, weighed and marked so that individual rats could be identified; one hour before testing all rats were given a 700 mg/kg intraperitoneal injection of ethyl urethane in distilled water to render them tractable during testing. […] Negative control groups received the vehicle; while positive control groups received a dose of phenylbutazone (PBZ) as shown in Table II. Test compounds were given at doses of 60, 120, 240 and 480 mg/kg. The positive controls were given at 120 mg/kg and 60 mg/kg. Phenylbutazone was prepared for injection by suspending it in normal saline using Tween 60. The rats were then held in group cages for 30 minutes. The volume of the left hind paw was measured using a mercury displacement pleysmograph. The paw is dipped into the mercury until the mercury touches the line above the ankle. Mercury is then withdrawn until the mercury returns to its original level. The amount of mercury removed is measured in milliliters (ml). The mercury can be measured accurately to 0.01 ml. This left hind paw was then injected with 0.1 ml of a 5% w/v solution of viscous carageenan in normal saline. The injection was given between the metatarsal bones using a 27 gauge needle, and the rats then held in group cages for 3 hours. The volume of the left hind paws was measured again in the pleysmograph. The results were computed in the following manner:
a. A mean is taken for both the pre-injection and post-injection paw volume of each test group.
b. The mean difference in volume (MDV) for each test group is computed by subtracting the pre-injection means from the post-injection mean.
c. The percent of control is computed for each test [formula] The percent of control is used to compare the efficacy of the various drug treatments.
d. The percent increase in paw volume is calculated for each group as: [formula] The percent increase is used to compare the amount of edma observed in one experiment to the amount of edma observed in other experiments.
[…] The test was conducted twice, once with nonfasted rats and once with rats that had been fasted during the 24 hour period prior to dosing. The 60 mg/kg phenylbutazone control group was not used in the test with fasted animals. Tween 60 in normal saline was the vehicle control for the non-fasted rats and normal saline was the vehicle control for the fasted rats.

[8] = G.C. analysis of CBC in the hemolysis test solution; type: physicochemical
Method: It was apparent that not all the CBC actually went into suspension. In order to determine if some of the CBC adhered to the wall of the glassware a 10 ml aliquot of the 2×10^-4 (solution a) of CBC saturated with NaCl was extracted with CHCl3 and analyzed by G.C. […] The flask was rinshed with ethanol and the washings analyzed by G.C. and found to contain 1.355 mg of CBC. The remaining 1.475 mg (50%) of CBC that could not be accounted for by G.C. analysis may have been lost during the extraction procedure or while adjusting the pH of the test solution. If the 1.475 mg CBC which could not be accounted for was actually in suspension then the maximum final concentration of CBC used in the highest CBC test level would be […] or one half the amount listed in Table 6. […] The actual activity of CBC may have been 3 to 30 times more protective of red cell membranes than an equivalent amount of PBZ.

[9] = CNS screen in unanesthetized mice; type: in vivo; conditions: doses as large as 800 mg/kg
[10] = test system: Escherichia coli; assay: agar well diffusion assay, E. coli; type: cell-based; conditions: from edge of agar well
Method: as §1

[11] = Table 6, 120 mg/kg oral, non-fasted rats
[12] = Table 6, 240 mg/kg oral, non-fasted rats
[13] = Table 6, 480 mg/kg oral, non-fasted rats
[14] = Table 7, 120 mg/kg oral, fasted rats, doses approximate
[15] = Table 7, 240 mg/kg oral, fasted rats, doses approximate
[16] = Table 7, 480 mg/kg oral (given following saline infusion), fasted rats, doses approximate

## CCCCCc1cc(O)c2c(c1)OC(C)(CCC=C(C)C)C=C2 (centres unmarked) [CBC (I), 2-methyl-2(4'methyl-pent-3'-enyl)-5-hydroxy-7-pentyl chromene]
[1]; 48 hr
  width of inhibition zone: 4.0 mm
[1]; 72 hr
  width of inhibition zone: 4.0 mm
[2]; 24 hr
  width of inhibition zone: 15. mm
[2]; 48 hr
  width of inhibition zone: 12. mm
[3]; 48 hr
  width of inhibition zone: 8. mm
[3]; 72 hr
  width of inhibition zone: 8. mm
[4]; 48 hr
  width of inhibition zone: 2. mm
[4]; 72 hr
  width of inhibition zone: 2. mm
[5]; 24 h
  MIC: 1.56 µg/mL (≈ 4.96 µM)
[5]; 48 h
  MIC: 1.56 µg/mL (≈ 4.96 µM)
[6]; 24 h
  MIC: 0.39 µg/mL (≈ 1.24 µM)
[6]; 48 h
  MIC: 0.78 µg/mL (≈ 2.48 µM)
[7]; 120 mg/kg oral, fasted rats, N.S.
  inhibition at 120 mg/kg: 35%
[7]; 120 mg/kg oral, nonfasted rats
  inhibition at 120 mg/kg: 21%
[7]; 240 mg/kg oral, fasted rats, * P = 0.01
  inhibition at 240 mg/kg: 67%
[7]; 240 mg/kg oral, nonfasted rats, ** P = 0.05
  inhibition at 240 mg/kg: 34%
[7]; 480 mg/kg oral, fasted rats, ** P = 0.05
  inhibition at 480 mg/kg: 55%
[7]; 480 mg/kg oral, nonfasted rats, * P = 0.01
  inhibition at 480 mg/kg: 50%
[7]; [11]
  mean difference in volume (MDV): 0.496
  percent increase in paw volume: 41.311%
  percent of control: 79.400%
[7]; [12]
  mean difference in volume (MDV): 0.412
  percent increase in paw volume: 38.372%
  percent of control: 66.000%
[7]; [13]
  mean difference in volume (MDV): 0.315
  percent increase in paw volume: 29.200%
  percent of control: 50.400%
[7]; [14]
  mean difference in volume (MDV): 0.409
  percent increase in paw volume: 31.382%
  percent of control: 65.400%
[7]; [15]
  mean difference in volume (MDV): 0.209
  percent increase in paw volume: 15.981%
  percent of control: 53.400%
[7]; [16]
  mean difference in volume (MDV): 0.281
  percent increase in paw volume: 22.321%
  percent of control: 45.000%
[7]; oral, listed as CBC
  antiinflammatory activity compared with PBZ in words: about equally effective at 120 mg/kg in the fasted rats; also recorded: generally more effective in inhibiting edema than was PBZ
[8]; 10 ml aliquot, G.C.
  amount of original CBC found in solution: 0.3 mg
[8]; G.C.
  amount of CBC found in ethanol washings of the flask: 1.355 mg
[8]; if unaccounted CBC was in suspension
  maximum final concentration of CBC in the highest CBC test level: 50 µM
[8]; nominal 2×10^-4, saturated with NaCl, extracted with CHCl3, G.C.
  concentration of CBC found in test solution a: 20 µM
[9]
  effects on the CNS screen: No significant effects
[10]; 24 hr
  width of inhibition zone: 5. mm
[10]; 48 hr
  width of inhibition zone: 5. mm
